{
  "source": "paper PMC5773580",
  "about": "“A synthetic combinatorial approach to disabling deviant Hedgehog signaling” (Scientific Reports, 2018)",
  "key": {"HDAC5": {"biological_target": "T1, HDAC5 (Homo sapiens, UniProt Q9UQL6)", "T1 construct": "purchased BPS Bioscience #50051-11", "T1 sequence (Q9UQL6 whole entry)": "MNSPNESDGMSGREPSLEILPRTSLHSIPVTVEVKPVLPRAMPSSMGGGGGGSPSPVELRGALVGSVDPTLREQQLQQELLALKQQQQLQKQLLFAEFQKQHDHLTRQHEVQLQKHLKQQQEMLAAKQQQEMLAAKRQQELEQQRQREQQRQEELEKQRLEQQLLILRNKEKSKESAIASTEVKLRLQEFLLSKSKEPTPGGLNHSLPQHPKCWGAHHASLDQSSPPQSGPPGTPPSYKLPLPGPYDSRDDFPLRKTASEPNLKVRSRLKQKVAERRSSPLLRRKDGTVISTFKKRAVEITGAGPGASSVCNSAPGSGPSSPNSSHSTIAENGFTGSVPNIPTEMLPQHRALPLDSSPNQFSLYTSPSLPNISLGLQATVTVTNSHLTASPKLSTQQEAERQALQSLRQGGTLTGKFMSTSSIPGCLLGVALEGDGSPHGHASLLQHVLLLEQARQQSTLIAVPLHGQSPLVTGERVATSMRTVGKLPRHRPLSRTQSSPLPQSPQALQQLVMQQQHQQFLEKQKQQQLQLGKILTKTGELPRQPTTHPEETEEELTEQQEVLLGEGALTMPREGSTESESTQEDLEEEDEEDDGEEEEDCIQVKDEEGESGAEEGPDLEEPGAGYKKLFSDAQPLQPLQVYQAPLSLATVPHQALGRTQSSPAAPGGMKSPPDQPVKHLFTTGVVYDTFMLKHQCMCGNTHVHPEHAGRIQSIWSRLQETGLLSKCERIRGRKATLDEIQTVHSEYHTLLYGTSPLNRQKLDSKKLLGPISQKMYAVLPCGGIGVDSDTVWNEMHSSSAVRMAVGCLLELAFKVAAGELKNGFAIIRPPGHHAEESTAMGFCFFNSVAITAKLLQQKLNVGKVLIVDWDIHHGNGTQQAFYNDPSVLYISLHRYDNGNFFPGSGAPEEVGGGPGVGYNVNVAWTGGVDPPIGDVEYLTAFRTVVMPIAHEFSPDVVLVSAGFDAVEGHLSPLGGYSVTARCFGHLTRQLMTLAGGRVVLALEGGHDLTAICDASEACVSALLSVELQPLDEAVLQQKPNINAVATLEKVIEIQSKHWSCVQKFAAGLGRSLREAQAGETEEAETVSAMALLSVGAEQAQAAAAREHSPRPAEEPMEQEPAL", "assay": "In vitro HDAC profiling (deacetylation assay), HDAC5", "assay_type": "biochemical", "settings": "for HDAC Activity (Fluorescent counts): Repeat1/Repeat 2", "method": "(§1) HDAC profiling was performed at BPS Bioscience (San Diego, CA). All of the compounds are dissolved in DMSO. A series of dilutions of the compounds were prepared with 10% DMSO in HDAC assay buffer (#50031) and 5 µl of the dilution was added to a 50 µl reaction so that the final concentration of DMSO is 1% in all of reactions. All of the enzymatic reactions were conducted in duplicate at 37 °C for 30 mins, except that the enzyme reactions for HDAC11 were at room temperature for 3 hrs. All of the reactions were performed in a 50 µl mixture containing HDAC assay buffer, 5 µg BSA, an HDAC substrate [HDAC Substrate 3 (BPS number 50037) or HDAC Class 2a Substrate 1 (BPS number 50040)], an HDAC enzyme (#50051-11) and a test compound. After enzymatic reactions, 50 μl of HDAC Developer (#50030) was added to each well and the plate was incubated at room temperature for an additional 20 mins. Fluorescence intensity was measured at an excitation of 360 nm and an emission of 460 nm using a Tecan Infinite M1000 microplate reader. HDAC activity assays were performed in duplicates at each concentration. The fluorescent intensity data were analyzed using the computer software, Graphpad Prism. In the absence of the compound, the fluorescent intensity (Ft) in each data set was defined as 100% activity. In the absence of HDAC, the fluorescent intensity (Fb) in each data set was defined as 0% activity. The percent activity in the presence of each compound was calculated according to the following equation: %activity = (F − Fb)/(Ft − Fb), where F = the fluorescent intensity in the presence of the compound. The values of % activity versus a series of compound concentrations were then plotted using non-linear regression analysis of Sigmoidal dose-response curve generated with the equation Y = B + (T − B)/1 + 10((LogIC50 − X) × Hill Slope), where Y = percent activity, B = minimum percent activity, T = maximum percent activity, X = logarithm of compound and Hill Slope = slope factor or Hill coefficient. The IC50 value was determined by the concentration causing a half-maximal percent activity."}, "HDAC8": {"biological_target": "T2, HDAC8 (Homo sapiens, UniProt Q9BY41)", "T2 construct": "purchased BPS Bioscience #50051-11", "T2 sequence (Q9BY41 1-377)": "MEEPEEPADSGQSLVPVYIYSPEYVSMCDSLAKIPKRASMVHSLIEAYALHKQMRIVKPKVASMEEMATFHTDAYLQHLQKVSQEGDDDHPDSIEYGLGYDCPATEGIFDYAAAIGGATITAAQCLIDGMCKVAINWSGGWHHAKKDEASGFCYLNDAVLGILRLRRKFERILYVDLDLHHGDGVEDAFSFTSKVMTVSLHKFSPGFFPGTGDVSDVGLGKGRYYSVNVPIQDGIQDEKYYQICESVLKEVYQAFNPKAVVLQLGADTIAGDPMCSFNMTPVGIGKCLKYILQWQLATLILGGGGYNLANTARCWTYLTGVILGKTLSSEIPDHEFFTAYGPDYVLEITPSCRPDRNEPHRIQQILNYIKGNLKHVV", "assay": "In vitro HDAC profiling (deacetylation assay), HDAC8", "assay_type": "biochemical", "settings": "for HDAC Activity (Fluorescent counts): Repeat1/Repeat 2", "method": "as §1"}, "[1]": {"test_system": "HDAC activity (acetylated tubulin) in NIH-3T3 cells", "assay": "Acetylation assay, Western blot of acetylated tubulin", "assay_type": "cell-based", "settings": "48hrs", "method": "For analyzing acetylation status of histone 3 and tubulin, NIH3T3 cells were grown to confluence in 6-well plates. After 48hrs of treatment with indicated chemicals, cells were lysed in RIPA buffer or 1% NP40/phosphate buffered saline/protease inhibitors (SIGMA, #S8820), the lysate cleared using a microcentrifuge, then 6 × sample loading buffer (Bioland Scientific) added to the supernatant. Proteins were separated on SDS-PAGE (BioRad Criterion TGX Precast Gels). Antibodies used for analyzing the blots were: acetylated tubulin (SIGMA, #T6793), tubulin, acetyl-histone H3 (Lys23), and histone H3 (Cell Signaling Technology, #2125 S, #8848 and #9717, respectively). Chemiluminescence was detected using a Li-COR Odyssey Imaging System."}, "[2]": {"settings": "in vitro deacetylation assay, duplicates"}},
  "note": "“And” between values parts separate entries of the source, which are not always exact repeats. Equal values may be shown once.",
  "data": [
    {"smiles": "O=C(CCCCCCC(=O)Nc1ccc(Cl)c(C(=O)Nc2ccc(NC(=O)c3cc(Cl)ccc3Cl)cc2)c1)NO", "note": "[IHR-SAHA]", "values": [
      {"measurement": "HDAC Activity (Fluorescent counts)", "setting": "HDAC5; HDAC5, WW01 0 Log nM", "result": "30976 Fluorescent counts and 29141 Fluorescent counts"},
      {"measurement": "HDAC Activity (Fluorescent counts)", "setting": "HDAC5; HDAC5, WW01 0.5 Log nM", "result": "29969 Fluorescent counts and 29451 Fluorescent counts"},
      {"measurement": "HDAC Activity (Fluorescent counts)", "setting": "HDAC5; HDAC5, WW01 1 Log nM", "result": "31041 Fluorescent counts and 29968 Fluorescent counts"},
      {"measurement": "HDAC Activity (Fluorescent counts)", "setting": "HDAC5; HDAC5, WW01 1.5 Log nM", "result": "29717 Fluorescent counts and 27943 Fluorescent counts"},
      {"measurement": "HDAC Activity (Fluorescent counts)", "setting": "HDAC5; HDAC5, WW01 2 Log nM", "result": "26390 Fluorescent counts and 24587 Fluorescent counts"},
      {"measurement": "HDAC Activity (Fluorescent counts)", "setting": "HDAC5; HDAC5, WW01 2.5 Log nM", "result": "24330 Fluorescent counts and 23282 Fluorescent counts"},
      {"measurement": "HDAC Activity (Fluorescent counts)", "setting": "HDAC5; HDAC5, WW01 3 Log nM", "result": "21924 Fluorescent counts and 21338 Fluorescent counts"},
      {"measurement": "HDAC Activity (Fluorescent counts)", "setting": "HDAC5; HDAC5, WW01 3.5 Log nM", "result": "23432 Fluorescent counts and 20698 Fluorescent counts"},
      {"measurement": "HDAC Activity (Fluorescent counts)", "setting": "HDAC5; HDAC5, WW01 4 Log nM", "result": "19760 Fluorescent counts and 18237 Fluorescent counts"},
      {"measurement": "HDAC Activity (Fluorescent counts)", "setting": "HDAC5; HDAC5, WW01 -0.5 Log nM", "result": "30061 Fluorescent counts and 30641 Fluorescent counts"},
      {"measurement": "IC50", "setting": "HDAC5; [2]", "result": "> 10", "unit": "µM"},
      {"measurement": "HDAC Activity (Fluorescent counts)", "setting": "HDAC8; HDAC8, WW01 0 Log nM", "result": "21093 Fluorescent counts and 21821 Fluorescent counts"},
      {"measurement": "HDAC Activity (Fluorescent counts)", "setting": "HDAC8; HDAC8, WW01 0.5 Log nM", "result": "22364 Fluorescent counts and 22102 Fluorescent counts"},
      {"measurement": "HDAC Activity (Fluorescent counts)", "setting": "HDAC8; HDAC8, WW01 1 Log nM", "result": "22562 Fluorescent counts and 22110 Fluorescent counts"},
      {"measurement": "HDAC Activity (Fluorescent counts)", "setting": "HDAC8; HDAC8, WW01 1.5 Log nM", "result": "21528 Fluorescent counts and 20488 Fluorescent counts"},
      {"measurement": "HDAC Activity (Fluorescent counts)", "setting": "HDAC8; HDAC8, WW01 2 Log nM", "result": "18696 Fluorescent counts and 20642 Fluorescent counts"},
      {"measurement": "HDAC Activity (Fluorescent counts)", "setting": "HDAC8; HDAC8, WW01 2.5 Log nM", "result": "20242 Fluorescent counts and 19075 Fluorescent counts"},
      {"measurement": "HDAC Activity (Fluorescent counts)", "setting": "HDAC8; HDAC8, WW01 3 Log nM", "result": "18387 Fluorescent counts and 19845 Fluorescent counts"},
      {"measurement": "HDAC Activity (Fluorescent counts)", "setting": "HDAC8; HDAC8, WW01 3.5 Log nM", "result": "17109 Fluorescent counts and 19683 Fluorescent counts"},
      {"measurement": "HDAC Activity (Fluorescent counts)", "setting": "HDAC8; HDAC8, WW01 4 Log nM", "result": "16686 Fluorescent counts and 18294 Fluorescent counts"},
      {"measurement": "HDAC Activity (Fluorescent counts)", "setting": "HDAC8; HDAC8, WW01 -0.5 Log nM", "result": "19254 Fluorescent counts and 22456 Fluorescent counts"},
      {"measurement": "IC50", "setting": "HDAC8; [2]", "result": "> 10", "unit": "µM"},
      {"measurement": "HDAC inhibitory activity, acetylated tubulin accumulation (ratio to total tubulin), compared with SAHA", "setting": "[1]", "result": "increase in anti-HDAC activity"}
    ]}
  ]
}
